From patent US20110281909A1, “SUBSTITUTED QUINOLINE DERIVATIVES AS H1 RECEPTOR ANTAGONISTS” (GLAXO GROUP LIMITED, priority 2007, published 2011)
Where a name gives a salt, the structure may show the parent alone.

How the values were obtained:
[1] = tested on: histamine-induced congestion; experiment: Intranasal challenge method: whole body plethysmography; type: in vivo, Female Dunkin-Hartley guinea pigs; conditions: guinea pig, dosed intranasally at 1 mg/ml either 3 hr or 24 hr before histamine challenge
Protocol: Intranasal Challenge Method: Whole Body Plethysmography
Female Dunkin-Hartley guinea pigs 150-250 g are sensitised twice daily for 5 days (week 1) with ovalbumin (OVA) and aluminium hydroxide (Al(OH)3 or Alum) in physiological saline, 25 μl/nostril. Solution is made up at 20 μg/ml OVA, 180 mg/ml Alum.
Pretreatment with test compound is performed at various times prior to histamine challenge. Efficacy dose-response curves are determined 1 hr and/or 3 hr after dosing whereas duration of action may be studied up to 7 days post dose (for example, at 24 hours). Test compounds are formulated as solutions in 0.9% sterile saline or suspensions in 0.9% sterile saline/tween80. […]
After the stipulated pre-dose time has been reached, guinea pigs are re-anaesthetised with isoflurane and dosed with either 10 mM or 15 mM histamine or phosphate-buffered saline (PBS), (25 μl per nostril). […] Data are analysed using ANOVA with post-hoc Fishers LSD test (general linear models, Statistica®) and finally Hochberg adjustment. Inhibition of histamine-induced congestion is determined by statistically significant differences between the mean responses of compound pre-treated groups compared to the vehicle pre-treated, histamine-challenged group.

[2] = biological target: T1, human H1 receptor (Homo sapiens, UniProt P35367); experiment: Histamine H1 functional antagonist assay: antagonist duration after washout; type: cell-based; conditions: at one or more time points after washout
T1 construct: expressed in transfected cells
T1 sequence (P35367 whole entry): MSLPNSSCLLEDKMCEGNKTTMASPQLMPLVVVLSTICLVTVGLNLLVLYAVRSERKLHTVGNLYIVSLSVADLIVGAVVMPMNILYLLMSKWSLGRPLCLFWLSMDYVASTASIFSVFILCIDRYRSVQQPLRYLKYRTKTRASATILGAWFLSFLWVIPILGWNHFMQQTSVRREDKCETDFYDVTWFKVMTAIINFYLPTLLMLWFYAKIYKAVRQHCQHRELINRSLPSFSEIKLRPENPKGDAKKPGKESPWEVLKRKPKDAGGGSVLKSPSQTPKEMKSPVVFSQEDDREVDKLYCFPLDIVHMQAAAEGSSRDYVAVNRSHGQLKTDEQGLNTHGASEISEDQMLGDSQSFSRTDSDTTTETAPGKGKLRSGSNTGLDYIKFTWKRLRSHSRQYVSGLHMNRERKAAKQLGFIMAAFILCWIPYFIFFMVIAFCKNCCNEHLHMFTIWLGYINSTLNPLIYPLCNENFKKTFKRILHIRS
Protocol: The human H1 receptor is cloned using known procedures described in the literature [Biochem. Biophys. Res. Commun., 201(2):894 (1994)]. Chinese hamster ovary (CHO) cells stably expressing the human H1 receptor are generated according to known procedures described in the literature [Br. J. Pharmacol., 117(6):1071 (1996)]. […] Following the 30 min antagonist incubation period, the cells are washed two or three times with 200 μl of PBS and then 100 μl Tyrodes buffer is added to each well to initiate antagonist dissociation. […] After this period, the cells are challenged with histamine in the FLIPR™ as described above. The dose ratio at each time point is used to determine the fractional H1 receptor occupancy by the following equation: fractional receptor occupancy=(DR-1)/DR. The decrease in receptor occupancy over time approximates to a straight line and is analysed by linear regression. The slope of this straight line fit is used as an index of the dissociation rate of the antagonist. The dose ratios for antagonist treated cells and for antagonist treated and washed cells at each time point are used to calculate a relative dose ratio (rel DR) which is also used as an index of antagonist duration. […]

| Compound | inhibition of the response to histamine challenge (duration of action) in the intranasal challenge model [1] | duration of action compared with azelastine in the histamine H1 functional antagonist assay [2] |
| --- | --- | --- |
| CN1CCCC(n2nc(Cc3ccc(Cl)cc3)c3ccccc3c2=O)CC1 (centres unmarked) [azelastine] | failed to show a similar duration of action | – |
| CCCCc1cc(OC2CCN(CCCCNS(=O)(=O)CC(C)C)CC2)c2ncccc2c1 [Example 26, N-(4-{4-[(6-Butyl-8-quinolinyl)oxy]-1-piperidinyl}butyl)-2-methyl-1-propanesulfonamide, dihydrochloride salt] | – | longer duration of action than azelastine |
